According to patent US20090175969A1, “Formulation for treating obesity and associated metabolic syndrome” (priority 2004, published 2009):

What was measured:
[1] = target: T1, pancreatic lipase (Homo sapiens, UniProt P16233); assay: in vitro effect on the activity of pancreatic lipase; assay type: biochemical; settings: concentration of 10 mg, after 45 and 60 minutes, 37° C.
T1 sequence (P16233 17-465): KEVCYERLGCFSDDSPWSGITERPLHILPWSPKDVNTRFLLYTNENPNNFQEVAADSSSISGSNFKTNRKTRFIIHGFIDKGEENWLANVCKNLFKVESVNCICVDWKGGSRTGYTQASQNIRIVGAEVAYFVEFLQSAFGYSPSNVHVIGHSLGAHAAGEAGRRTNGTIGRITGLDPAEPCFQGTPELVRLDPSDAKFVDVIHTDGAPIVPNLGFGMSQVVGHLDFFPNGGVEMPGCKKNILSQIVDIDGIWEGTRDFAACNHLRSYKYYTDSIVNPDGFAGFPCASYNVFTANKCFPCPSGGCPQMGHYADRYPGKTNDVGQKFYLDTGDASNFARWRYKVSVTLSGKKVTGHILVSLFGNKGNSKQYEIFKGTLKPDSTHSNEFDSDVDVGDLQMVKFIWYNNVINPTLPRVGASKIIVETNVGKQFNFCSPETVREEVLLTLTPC
Source text: The composition of the formulation of the invention is presented below in the Table 1: […]

[2] = test system: lipase; settings: human, three capsules of 120 mg daily; cited from earlier work

CCCCCCCCCCC[C@@H](C[C@@H]1OC(=O)[C@H]1CCCCCC)OC(=O)[C@H](CC(C)C)NC=O (relative stereo) [Xenical®, ([2S-[2a(R*),3b]]N-formyl-L-leucine 1-[(3-hexyl-4-oxo-2-oxetanyl)methyl]dodecyl ester)]
inhibition of lipase activity [1]: complete inhibition | consumed fat that goes through the digestive tract without decomposition and is not absorbed [2]: 30%
